Consider one substance from US20080279843A1, “Method For Improving Insulin Sensitivity By Administering an Inhibitor of Antitrypsin” (Essential SkinCare, LLC, priority 2003, published 2008).

Test [1] concerns differentiated rat L6 muscle cells. Kind of test: Cellular uptake of D-[14C]glucose. Type of test: cell-based. As to the method: Rat L6 skeletal muscle cells were obtained from the American Type Culture Collection, Rockville, Md. L6 cell monolayers were induced to differentiate in Minimal Essential Medium (MEM) containing 2% (v/v) fetal bovine serum (FBS) and 1% (v/v) antibiotic/antimycotic solution. The cells were fed fresh medium every 48 hours. Myoblast differentiation, which occurred by about the 7-9th day, was monitored by phase contrast microscopy. Differentiated L6 cells are widely used models for studying glucose metabolism in the skeletal muscle. The present study was focused on these cells, because skeletal muscle accounts for about 70-80% of total blood glucose metabolism in the human body.
To examine cellular glucose uptake and metabolism, differentiated (attached) cells in 12-well plates were incubated at 37° C. in a CO2 incubator (95% air: 5% CO2) with D-[^14C]glucose (1 μCi/mL) in 2% FBS-containing medium containing 5.5 mM unlabeled glucose for 0.5-6 hours as indicated at the corresponding Figures. At the termination of incubation, the medium was removed. An aliquot of the medium was taken to determine the loss of [^14C]glucose from the medium which corresponds to its uptake by cells. Cells were washed twice with 3 ml medium to remove traces of medium containing unincorporated radioactivity. Ice-cold 99.8% methanol/0.2% water (v/v) mixture (1 ml) was then added to the monolayers and cells were extracted for 2 hours at −20° C. […] The methanol phase (1 ml) and a following 1 ml methanol wash were added to 2 ml chloroform followed by the addition of 3 ml water. Of the resulting two phases (separation was facilitated by brief centrifugation), the lower phase contained the total radiolabeled lipids, while the upper phase contained [^14C]glucose.
Aliquots of the upper and lower phases were taken to scintillation vials to determine the amounts of radiolabeled glucose and total lipids, respectively, by liquid scintillation counting. Precipitated [^14C]glycogen was suspended in 0.75 ml of 1 M NaOH and transferred to scintillation vial. This procedure was repeated with another 0.75 ml aliquot of NaOH. To neutralize the suspension, […] (approximately 150 μL) was then added to the vials, followed by the addition of 8.5 ml Ecolume (scintillation fluid). While the 1 M NaOH suspension contained some particulate material (mostly protein which was not labeled with radiolabeled glucose), no precipitate remained in the suspension after addition of Ecolume. […] No additional radioactivity could be removed from the well by neutralized 30% KOH.
Three groups of differentiated L6 cells, incubated in 12-well plates in 2% FBS-containing medium, were treated as follows. A first control group ([…]) was untreated. A second group (▴) was treated with 500 nM insulin for 30 min. A third group (▪) was treated first with 0.4 mg/ml of AT followed by an addition of 500 nM insulin for 30 min. Following the addition of D-[^14C]glucose, each group was incubated in the continuous presence of insulin and AT, as described above, for 0.5-6 hours.
Four groups of differentiated L6 cells, incubated in 12-well plates in 2% FBS-containing medium, were treated as follows. A first control group was untreated. A second group was treated with 500 nM insulin for 30 min. A third group was treated with 0.05 to 0.4 mg/ml of AT for 10 min. Finally, a fourth group was treated with 0.05 to 0.4 mg/ml of AT for 10 min followed by the addition of 500 nM insulin for 30 min. […]

The test system of test [2] is C57/Black female mice. As to the kind of experiment: Glucose tolerance test with insulin and purified AT (Example 3). The class given is in vivo. The note with it: highly purified AT 1.2 mg/mouse i.p. 24 h prior to insulin; glucose 3 g/kg i.p. As to the method:
C57/Black female mice weighing 23-25 g were fasted for 16 hours. Five animals were used for each of the three treatment groups. The first treatment group received intraperitoneal injections of 1200 μg purified AT, i.e. AT purified by the procedure of Example 1. Exactly 23 hours and 45 minutes after the AT was administered to the first treatment group, the animals in the first and second treatment group received 0.5 I.U. of insulin. Exactly 15 minutes after the insulin was administered (i.e., 24 hours after AT was administered to the first treatment group), glucose (3 g/kg) was injected intraperitoneally into the first, second and third treatment group. Blood samples were immediately measured with the fast Glucose C test (Wako Chemicals Inc. Richmond, Va., USA). The data presented are the mean ±S.D. of five determinations, one with each animal.

With α1-antitrypsin [AT], in test [1] (0.4 mg/ml AT, 500 nM insulin, 30 min incubation), the “Effect of AT on the insulin effect on cellular [14C]glucose, short incubation” value is recorded as “no such inhibitory effects”. In test [1] (FIG. 3A, 0.4 mg/ml purified AT, incubations for 2 hrs or 6 hours), the “Effect of AT on insulin-stimulated uptake of D-[14C]glucose” value was “inhibited both insulin effects”. In addition, the “Effect of AT on cellular level of [14C]glucose in the absence of insulin” value in test [1] (FIG. 4A, 0.05 to 0.4 mg/ml AT, 5 hours) is “did not significantly affect”. Further, the “Decrease of cellular level of [14C]glucose by AT in the presence of insulin” value in test [1] (FIG. 4A, 0.2 to 0.4 mg/ml AT, 500 nM insulin, 5 hours) is on record as “at least 50%”. For the same substance, the “Effect of AT on the action of insulin on blood glucose level” value in test [2] is “blocked the action of insulin”.
